Reference: patent US6310095A, “Inhibitors of protein isoprenyl transferases” (University of Pittsburgh, priority 1998, dated 2001)
Structures can show the parent of a compound that is named as a salt. Where two headings read alike, the source gives them in different places.

Target: T1, protein farnesyltransferase (Rattus norvegicus, UniProt Q02293+Q04631)
T1 construct: Rat brain protein farnesyltransferase activity is measured; from tissue; host or cells: rat brain; purified according to Reiss et al., Cell 62:81-88 (1990), steps one through three
Test: in vitro inhibition of protein farnesyltransferase (scintillation proximity assay, biotin-K Ras B fragment)
Format: biochemical
Conditions: for inhibition at 1 µM: read-out: % inhibition of farnesyltransferase; for inhibition at 10 µM: at 1 × 10^-5 M
Source text: The ability of the compounds of the invention to inhibit protein farnesyltransferase or protein geranylgeranyltransferase can be measured according to the method of Moores, et al., J. Biol. Chem. 266: 14603 (1991) or the method of Vogt, et al., J. Biol. Chem. 270:660-664 (1995). In addition, procedures for determination of the inhibition of farnesylation of the oncogene protein Ras are described by Goldstein, et al., J. Biol. Chem., 266:15575-15578 (1991) and by Singh in U.S. Pat. No. 5,245,061.
In addition, in vitro inhibition of protein farnesyltransferase may be measured by the following procedure. Rat brain protein farnesyltransferase activity is measured using an Amersham Life Science commercial scintillation proximity assay kit and substituting a biotin-K Ras B fragment (biotin-[…]CO2 H), 0.1 mM final concentration, for the biotin-lamin substrate provided by Amersham. The enzyme is purified according to Reiss, Y., et al., Cell, 62: 81-88 (1990), utilizing steps one through three.
The % inhibition of protein farnesyltransferase was determined for representative compounds of the invention.

| % inhibition of farnesyltransferase (at 1 × 10^-6 M) | SMILES | other results |
| --- | --- | --- |
| – | CSCCC(NC(=O)c1ccc(NC(=O)Cc2cscn2)cc1-c1ccccc1)C(=O)O (stereo not shown) [Example 162, [4-(thiazo-4-ylmethylcarbonyl)amino-2-phenylbenzoyl]methionine] | inhibition at 1 µM (at 1 × 10^-6 M): 12% |
| – | CSCC[C@H](NC(=O)c1ccc(NC(=O)Cc2nccs2)cc1-c1ccccc1)C(=O)O [Example 163, [4-(thiazol-2-ylmethylcarbonyl)amino-2-phenylbenzoyl]methionine] | inhibition at 1 µM (at 1 × 10^-6 M): 18% |
| – | COC(=O)[C@H](CCSC)NC(=O)c1ccc(NC(=O)[C@@H]2CSCN2)cc1-c1ccccc1 [Example 164, [4-((R)-thiazolidin-4-ylcarbonyl)amino-2-phenylbenzoyl]methionine methyl ester hydrochloride] | inhibition at 1 µM (at 1 × 10^-6 M): 92% |
| – | CSCC[C@H](NC(=O)c1ccc(NC(=O)[C@@H]2CSCN2)cc1-c1ccccc1)C(=O)O [Example 165, [4-((R)-thiazolidin-4-ylcarbonyl)amino-2-phenylbenzoyl]methionine] | inhibition at 1 µM (at 1 × 10^-6 M): 74% |
| – | CSCC[C@H](NC(=O)c1ccc(NC[C@@H]2CSCN2)cc1-c1ccccc1)C(=O)O [Example 166, [4-((R)-thiazolidin-4-ylmethyl)amino-2-phenylbenzoyl]methionine hydrochloride] | inhibition at 1 µM (at 1 × 10^-6 M): 97% |
| – | CSCC[C@H](NC(=O)c1ccc(NC(=O)C2CCC(=O)N2)cc1-c1ccccc1)C(=O)O (stereo partly shown) [Example 202, [4-(2-pyrrolidinone-5-ylcarbonylamino)-2-phenylbenzoyl]methionine] | inhibition at 1 µM (at 1 × 10^-6 M): 31% |
| – | CSCCC(NC(=O)c1ccc(NC(=O)c2cncnc2)cc1-c1ccccc1)C(=O)O (stereo not shown) [Example 219, [4-(5-pyrimidylcarboxyamino)-2-phenylbenzoyl]methionine] | inhibition at 1 µM (at 1 × 10^-6 M): 56% |
| 41% | CSCC[C@H](NC(=O)c1ccc(N2CC(=O)NNC2=O)cc1-c1ccccc1)C(=O)O [Example 224] | – |
| – | CSCCC(NC(=O)c1ccc(NC(=O)C2CCCNC2)cc1-c1ccccc1)C(=O)O (stereo not shown) [Example 231, [4-(3-piperidinecarboxyamino)-2-phenylbenzoyl]methionine hydrochloride] | inhibition at 1 µM (at 1 × 10^-6 M): 50% |
| 96% | CSCC[C@H](NC(=O)c1ccc(COCc2cccs2)cc1-c1ccccc1C)C(=O)[O-].[Li+] [Example 273] | – |
| – | CSCC[C@H](NC(=O)c1ccc(NC(=O)C2=C(C(F)(F)F)C=CNC2)cc1-c1ccccc1)C(=O)O [Example 283, [4-(1H-4-trifluoromethyl-1,2-dihydropyrid-3-ylcarbonylamino)-2-phenylbenzoyl]methionine sodium salt] | inhibition at 1 µM: 98% |
| – | CSCC[C@H](NC(=O)c1ccc(NCC2CNCCN2)cc1-c1ccccc1)C(=O)O (stereo partly shown) [Example 286, [4-(2-piperazinylmethylamino)-2-phenylbenzoyl]methionine] | inhibition at 1 µM (at 1 × 10^-6 M): 84% |
| 24% | CSCC[C@H](NC(=O)c1ccc(COCC2CCOC2)cc1-c1ccccc1)C(=O)O (stereo partly shown) [Example 287] | – |
| 22% | CSCC[C@H](NC(=O)c1ccc(COCC2CCCO2)cc1-c1ccccc1)C(=O)O (stereo partly shown) [Example 288] | – |
| 43% | CCCCON(CCC1CCCCC1)Cc1ccc(C(=O)N[C@@H](CCS(C)(=O)=O)C(=O)O)c(-c2ccccc2C)c1 [Example 298] | – |
| 22% | CCCCN(C)N(CCC1CCCCC1)Cc1ccc(C(=O)N[C@@H](CCS(C)(=O)=O)C(=O)O)c(-c2ccccc2C)c1 [Example 300] | – |
| 98% | CSCC[C@H](NC(=O)c1ccc(CN(C)C(CC2CCCCC2)C(=O)N2CCCCC2)cc1-c1ccccc1C)C(=O)O (stereo partly shown) [Example 301] | – |
| – | CSCC[C@H](NC(=O)c1ccc(CNCc2ccco2)cc1-c1ccccc1)C(=O)O [Example 302, [4-(2-furylmethylaminomethyl)-2-phenylbenzoyl]methionine lithium salt] | inhibition at 1 µM: 31% |
| 82% | CSCC[C@H](NC(=O)c1ccc(CNC(C)(C)Cc2ccccc2)cc1-c1ccccc1C)C(=O)O [Example 307] | – |
| 62% | CSCC[C@H](NC(=O)c1ccc(CNC(C)(C)CC2CCCCC2)cc1-c1ccccc1C)C(=O)O [Example 308] | – |
| 98% | CSCC[C@H](NC(=O)c1ccc(CN(C)C(C)(C)Cc2ccccc2)cc1-c1ccccc1C)C(=O)O [Example 309] | – |
| 97% | Cc1ccccc1-c1cc(CNC(C)(C)Cc2ccccc2)ccc1C(=O)N[C@@H](CCS(C)(=O)=O)C(=O)O [Example 311] | – |
| 94% | Cc1ccccc1-c1cc(CN(C)C(C)(C)Cc2ccccc2)ccc1C(=O)N[C@@H](CCS(C)(=O)=O)C(=O)O [Example 313] | – |
| 97% | Cc1ccccc1-c1cc(CN(C)C(C)(C)CC2CCCCC2)ccc1C(=O)N[C@@H](CCS(C)(=O)=O)C(=O)O [Example 314] | – |
| 93% | CSCC[C@H](NC(=O)c1ccc(CN(C2CC2)C(C)(C)Cc2ccccc2)cc1-c1ccccc1C)C(=O)O [Example 315] | – |
| 63% | CSCC[C@H](NC(=O)c1ccc(CN(C2CC2)C(C)(C)CC2CCCCC2)cc1-c1ccccc1C)C(=O)O [Example 316] | – |

| % inhibition of farnesyltransferase (at 1 × 10^-6 M) | SMILES | other results |
| --- | --- | --- |
| 54% | CSCC[C@H](NC(=O)c1ccc(CN(C(C)C)C(C)(C)Cc2ccccc2)cc1-c1ccccc1C)C(=O)O [Example 317] | – |
| 98% | CSCC[C@H](NC(=O)c1ccc(CN(C(C)C)C(C)(C)CC2CCCCC2)cc1-c1ccccc1C)C(=O)O [Example 318] | – |
| 98% | Cc1ccccc1-c1cc(CN(C2CC2)C(C)(C)Cc2ccccc2)ccc1C(=O)N[C@@H](CCS(C)(=O)=O)C(=O)O [Example 319] | – |
| 93% | Cc1ccccc1-c1cc(CN(C2CC2)C(C)(C)CC2CCCCC2)ccc1C(=O)N[C@@H](CCS(C)(=O)=O)C(=O)O [Example 320] | – |
| 98% | CSCC[C@H](NC(=O)c1ccc(CN(C2CC2)C2(CC3CCCCC3)CC2)cc1-c1ccccc1C)C(=O)O [Example 324] | – |
| 99% | CSCC[C@H](NC(=O)c1ccc(CN(C(C)C)C2(Cc3ccccc3)CC2)cc1-c1ccccc1C)C(=O)O [Example 325] | – |
| 91% | CSCC[C@H](NC(=O)c1ccc(CN(C(C)C)C2(CC3CCCCC3)CC2)cc1-c1ccccc1C)C(=O)O [Example 326] | – |
| 98% | CSCC[C@H](NC(=O)c1ccc(CN(C2CC2)C2(Cc3ccccc3)CCC2)cc1-c1ccccc1C)C(=O)O [Example 329] | – |
| 98% | CSCC[C@H](NC(=O)c1ccc(CN(C2CC2)C2(CC3CCCCC3)CCC2)cc1-c1ccccc1C)C(=O)O [Example 330] | – |
| 98% | CSCC[C@H](NC(=O)c1ccc(CN(C(C)C)C2(Cc3ccccc3)CCC2)cc1-c1ccccc1C)C(=O)O [Example 331] | – |
| 26% | CSCC[C@H](NC(=O)c1ccc(CN(C(C)C)C2(CC3CCCCC3)CCC2)cc1-c1ccccc1C)C(=O)O [Example 332] | – |
| 99% | Cc1ccccc1-c1cc(CN(C2CC2)C2(Cc3ccccc3)CCC2)ccc1C(=O)N[C@@H](CCS(C)(=O)=O)C(=O)O [Example 333] | – |
| 93% | Cc1ccccc1-c1cc(CN(C2CC2)C2(CC3CCCCC3)CCC2)ccc1C(=O)N[C@@H](CCS(C)(=O)=O)C(=O)O [Example 334] | – |
| 72% | CSCC[C@H](NC(=O)c1ccc(CN(C(C)C)C2(Cc3ccccc3)CCCC2)cc1-c1ccccc1C)C(=O)O [Example 343] | – |
| 95% | CSCC[C@H](NC(=O)c1ccc(CN(C(C)C)C2(CC3CCCCC3)CCCC2)cc1-c1ccccc1C)C(=O)O [Example 344] | – |
| 91% | Cc1ccccc1-c1cc(CN(C2CC2)C2(Cc3ccccc3)CCCC2)ccc1C(=O)N[C@@H](CCS(C)(=O)=O)C(=O)O [Example 345] | – |
| 98% | Cc1ccccc1-c1cc(CN(C2CC2)C2(CC3CCCCC3)CCCC2)ccc1C(=O)N[C@@H](CCS(C)(=O)=O)C(=O)O [Example 346] | – |
| 99% | CSCC[C@H](NC(=O)c1ccc(CN2C(=O)OC[C@@H]2CC2CCCCC2)cc1-c1ccccc1C)C(=O)O [Example 349] | – |
| – | CCn1cc(NCc2ccc(C(=O)N[C@@H](CCSC)C(=O)O)c(-c3ccccc3)c2)c(=O)n1CC [Example 364] | inhibition at 10 µM: 69% |
| – | CSCC[C@H](NC(=O)c1ccc(CNCCN2CCOCC2)cc1-c1ccccc1)C(=O)O [Example 365] | inhibition at 10 µM: 97% |
| – | CSCC[C@H](NC(=O)c1ccc(CNCCN2CCCCC2)cc1-c1ccccc1)C(=O)O [Example 366] | inhibition at 10 µM: 83% |
| – | CSCC[C@H](NC(=O)c1ccc(CNCCc2cccs2)cc1-c1ccccc1)C(=O)O [Example 369] | inhibition at 10 µM: 87% |
| – | CSCC[C@H](NC(=O)c1ccc(CNc2cc[nH]n2)cc1-c1ccccc1)C(=O)O [Example 370] | inhibition at 10 µM: 86% |
| – | CSCC[C@H](NC(=O)c1ccc(CNc2nnc(C)s2)cc1-c1ccccc1)C(=O)O [Example 371] | inhibition at 10 µM: 66% |
| – | CSCC[C@H](NC(=O)c1ccc(CNc2cc(C)on2)cc1-c1ccccc1)C(=O)O [Example 372] | inhibition at 10 µM: 69% |

| SMILES | % inhibition of farnesyltransferase (at 1 × 10^-6 M) | other results |
| --- | --- | --- |
| CSCC[C@H](NC(=O)c1ccc(COCc2ccsc2)cc1-c1ccccc1C)C(=O)[O-].[Li+] [Example 274] | 94% | – |
